Measurements as given in ChEMBL document CHEMBL1201862, “PubChem BioAssay data set” (2004).
Calls of active or inactive are those of the source.

What was measured:
[1] = biological target: T1, Sentrin-specific protease 8 (Homo sapiens, UniProt Q96LD8); type: functional;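 note: luminescence read-out of SENP8 inhibition, dose-response confirmation following an ultra-high-throughput screen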
T1 sequence (Q96LD8 whole entry): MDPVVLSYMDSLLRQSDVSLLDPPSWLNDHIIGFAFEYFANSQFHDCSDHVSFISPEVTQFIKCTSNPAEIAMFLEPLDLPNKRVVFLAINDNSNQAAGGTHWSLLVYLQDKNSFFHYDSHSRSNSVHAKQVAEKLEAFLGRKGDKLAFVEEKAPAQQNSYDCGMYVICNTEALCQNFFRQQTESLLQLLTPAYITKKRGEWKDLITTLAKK

[2] = biological target: T2, Sentrin-specific protease 6 (Homo sapiens, UniProt Q9GZR1); type: functional;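 note: Luminescence-based dose-response confirmatory assay of SENP6 inhibition, following up an ultra-high-throughput screen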
T2 sequence (Q9GZR1 whole entry): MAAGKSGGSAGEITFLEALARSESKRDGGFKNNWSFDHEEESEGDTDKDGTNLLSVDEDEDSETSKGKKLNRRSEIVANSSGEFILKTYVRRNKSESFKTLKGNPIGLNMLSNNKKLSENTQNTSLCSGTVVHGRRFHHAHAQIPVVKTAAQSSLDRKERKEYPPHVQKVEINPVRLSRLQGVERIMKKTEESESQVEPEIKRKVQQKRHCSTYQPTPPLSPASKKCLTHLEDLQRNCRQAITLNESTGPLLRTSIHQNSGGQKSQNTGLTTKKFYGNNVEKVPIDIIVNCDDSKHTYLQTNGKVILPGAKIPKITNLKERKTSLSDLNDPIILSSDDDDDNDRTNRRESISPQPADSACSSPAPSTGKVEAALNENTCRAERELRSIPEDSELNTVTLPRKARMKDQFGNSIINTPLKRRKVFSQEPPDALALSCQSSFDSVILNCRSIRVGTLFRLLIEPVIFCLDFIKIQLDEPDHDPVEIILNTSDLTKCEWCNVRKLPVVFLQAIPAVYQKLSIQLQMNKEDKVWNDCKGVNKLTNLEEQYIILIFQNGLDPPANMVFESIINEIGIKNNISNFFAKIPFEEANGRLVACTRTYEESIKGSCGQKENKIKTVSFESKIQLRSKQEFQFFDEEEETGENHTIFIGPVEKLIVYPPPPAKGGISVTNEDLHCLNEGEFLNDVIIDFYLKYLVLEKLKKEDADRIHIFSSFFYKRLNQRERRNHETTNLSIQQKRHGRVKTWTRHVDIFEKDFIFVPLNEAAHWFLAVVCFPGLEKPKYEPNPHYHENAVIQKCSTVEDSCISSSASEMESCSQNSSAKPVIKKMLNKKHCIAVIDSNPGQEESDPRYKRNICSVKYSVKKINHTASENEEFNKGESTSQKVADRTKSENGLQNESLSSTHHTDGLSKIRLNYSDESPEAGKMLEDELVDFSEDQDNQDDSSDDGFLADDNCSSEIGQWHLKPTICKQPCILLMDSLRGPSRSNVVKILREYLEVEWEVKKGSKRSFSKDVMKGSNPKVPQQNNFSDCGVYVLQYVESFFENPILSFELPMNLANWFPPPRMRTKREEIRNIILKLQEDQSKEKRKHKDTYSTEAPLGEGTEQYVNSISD

Caspase-3 [3] = biological target: T3, Caspase-3 (Homo sapiens, UniProt P42574); type: functional;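 note: Dose-response selectivity test against caspase-3 for candidate inhibitors of sentrin-specific proteases (SENPs)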
T3 sequence (P42574 whole entry): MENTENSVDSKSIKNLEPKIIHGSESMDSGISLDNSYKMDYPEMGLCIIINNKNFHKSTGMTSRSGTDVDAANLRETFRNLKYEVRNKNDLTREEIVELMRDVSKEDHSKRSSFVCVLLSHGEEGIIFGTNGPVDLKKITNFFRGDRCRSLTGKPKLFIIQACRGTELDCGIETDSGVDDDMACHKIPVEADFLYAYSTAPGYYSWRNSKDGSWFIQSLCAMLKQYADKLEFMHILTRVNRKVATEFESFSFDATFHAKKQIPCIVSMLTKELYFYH

HeLa = experiment: HeLa cell cytotoxicity, dose response, cytotoxicity control for MITF activator project, CellTiter-Glo luminescence, cherry-pick samples (AID 540259); type: functional, cell-based; conditions: Homo sapiens
[4] = biological target: T4, Serine/threonine-protein phosphatase (Candida dubliniensis (strain CD36 / CBS 7987 / NCPF 3949 / NRRLY-17841) (Yeast), UniProt B9W6M3); experiment: calcineurin pathway inhibitors in yeast reporter, dose response, S. cerevisiae, CDRE-lacZ, luminescence, secondary (AID 2388); type: functional, cell-based;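 note: yeast reporter cells carrying a calcineurin-responsive lacZ construct stimulated with calcium chloride; luminescent beta-galactosidase reporter signal in whole cells rather than isolated phosphatase activity; potency for inhibition where a drop in reporter signal means calcineurin blockade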
T4 sequence (B9W6M3 whole entry): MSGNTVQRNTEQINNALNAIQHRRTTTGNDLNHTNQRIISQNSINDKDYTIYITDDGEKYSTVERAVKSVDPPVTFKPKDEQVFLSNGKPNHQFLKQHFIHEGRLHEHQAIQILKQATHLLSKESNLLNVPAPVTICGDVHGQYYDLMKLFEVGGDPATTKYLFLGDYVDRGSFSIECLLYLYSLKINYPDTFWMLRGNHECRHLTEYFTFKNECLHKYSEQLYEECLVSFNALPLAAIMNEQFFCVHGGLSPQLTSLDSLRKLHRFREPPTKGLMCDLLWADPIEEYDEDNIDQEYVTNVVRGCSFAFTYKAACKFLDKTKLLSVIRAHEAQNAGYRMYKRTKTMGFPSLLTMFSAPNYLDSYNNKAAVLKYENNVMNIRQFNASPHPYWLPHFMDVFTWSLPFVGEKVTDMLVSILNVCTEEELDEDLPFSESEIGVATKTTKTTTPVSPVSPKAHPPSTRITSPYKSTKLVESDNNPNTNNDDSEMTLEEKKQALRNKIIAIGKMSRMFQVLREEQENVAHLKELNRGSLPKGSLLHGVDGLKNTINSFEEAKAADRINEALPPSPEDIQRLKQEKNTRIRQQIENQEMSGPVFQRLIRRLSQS

[5] = biological target: T5, Corticotropin-releasing factor receptor 2/Corticotropin-releasing factor-binding protein (Homo sapiens, UniProt P24387+Q13324); experiment: activators of CRF receptor 2 with binding protein – uHTS hits, confirmation (AID 602473); type: functional; conditions: read-out: EC50_Mean
T5 sequence (Q13324 whole entry): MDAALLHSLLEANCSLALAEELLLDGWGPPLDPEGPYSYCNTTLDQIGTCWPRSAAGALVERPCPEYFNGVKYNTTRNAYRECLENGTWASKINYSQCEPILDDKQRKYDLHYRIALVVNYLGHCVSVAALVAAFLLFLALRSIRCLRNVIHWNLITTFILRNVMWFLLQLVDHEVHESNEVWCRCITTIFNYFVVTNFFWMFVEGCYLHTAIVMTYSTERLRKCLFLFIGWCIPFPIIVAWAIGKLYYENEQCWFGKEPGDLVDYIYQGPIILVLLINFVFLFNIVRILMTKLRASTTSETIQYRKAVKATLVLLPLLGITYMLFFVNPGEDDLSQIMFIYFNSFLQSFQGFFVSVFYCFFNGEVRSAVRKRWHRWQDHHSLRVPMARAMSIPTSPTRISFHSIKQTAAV
T5 sequence (P24387 whole entry): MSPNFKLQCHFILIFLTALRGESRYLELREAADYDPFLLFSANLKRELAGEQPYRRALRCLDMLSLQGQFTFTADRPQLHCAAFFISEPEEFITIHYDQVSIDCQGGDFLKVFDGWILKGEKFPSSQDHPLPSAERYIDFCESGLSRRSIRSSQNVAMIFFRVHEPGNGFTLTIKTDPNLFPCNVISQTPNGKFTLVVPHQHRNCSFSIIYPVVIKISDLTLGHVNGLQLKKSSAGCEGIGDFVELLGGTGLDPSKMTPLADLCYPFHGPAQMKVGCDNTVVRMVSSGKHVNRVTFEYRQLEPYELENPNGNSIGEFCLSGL

[6] = C. albicans growth with fluconazole, confirmation, fluorescence, retest (AID 2467); type: functional, cell-based
[7] = NIH-3T3 fibroblast cytotoxicity, dose response, cytotoxicity control, cell-based, fluorescence, Alamar Blue, secondary assay (AID 2327); type: functional;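 note: NIH-3T3 mouse fibroblasts cultured with fluconazole at 8 µg/mL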
[8] = biological target: ATP-dependent molecular chaperone HSP82 (Candida albicans (strain WO-1) (Yeast), UniProt C4YTQ8); experiment: loss of DOC-induced GRE-beta-galactosidase reporter signal, dose response, Hsp90 inhibitor project, S. cerevisiae, luminescence (AID 2400); type: functional, cell-based;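 note: beta-galactosidase luminescence from glucocorticoid response element reporter as proxy for Hsp90 function; inhibitor potency where signal loss means Hsp90 inhibition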
Sequence of ATP-dependent molecular chaperone HSP82 (C4YTQ8 whole entry): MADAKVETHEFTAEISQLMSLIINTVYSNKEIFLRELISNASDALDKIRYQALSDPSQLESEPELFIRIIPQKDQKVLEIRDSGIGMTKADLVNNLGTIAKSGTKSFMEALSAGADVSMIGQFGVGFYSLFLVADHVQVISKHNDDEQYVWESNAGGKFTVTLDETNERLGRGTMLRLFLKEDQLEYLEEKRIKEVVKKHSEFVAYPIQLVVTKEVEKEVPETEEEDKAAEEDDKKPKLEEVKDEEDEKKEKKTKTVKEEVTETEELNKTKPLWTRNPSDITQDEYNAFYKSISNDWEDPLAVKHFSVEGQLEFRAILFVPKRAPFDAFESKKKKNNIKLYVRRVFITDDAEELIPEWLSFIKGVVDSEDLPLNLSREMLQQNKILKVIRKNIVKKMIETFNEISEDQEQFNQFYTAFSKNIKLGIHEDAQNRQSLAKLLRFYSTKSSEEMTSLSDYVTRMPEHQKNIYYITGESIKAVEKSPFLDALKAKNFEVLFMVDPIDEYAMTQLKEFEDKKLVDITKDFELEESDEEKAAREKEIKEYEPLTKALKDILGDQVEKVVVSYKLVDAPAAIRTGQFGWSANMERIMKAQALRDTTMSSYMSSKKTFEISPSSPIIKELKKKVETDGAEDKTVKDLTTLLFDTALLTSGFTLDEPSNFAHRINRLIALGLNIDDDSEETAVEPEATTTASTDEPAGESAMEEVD

[9] = biological target: T5, Corticotropin-releasing factor receptor 2/Corticotropin-releasing factor-binding protein; experiment: Dose Response confirmation of uHTS hits for small molecule antagonists of the CRF-binding protein and CRF-R2 receptor complex.; type: functional; conditions: read-out: IC50_Mean
cells [10] = type: functional, cell-based
[11] = biological target: T1, Sentrin-specific protease 8; experiment: SENP8 protease inhibitors, SAR follow-up, biochemical, luminescence, set 2 (AID 588601); type: functional
cells [12] = type: functional, cell-based; remark: listed apart in the source
[13] = biological target: T2, Sentrin-specific protease 6; experiment: SENP6 protease inhibitors, SAR follow-up, biochemical, luminescence, set 2 (AID 588598); type: functional
Caspase-3 [14] = biological target: T3, Caspase-3; experiment: caspase-3 inhibitors as off-family protease, SAR follow-up, selectivity assay for SENP protease inhibitor project, biochemical, luminescence, set 2 (AID 588599); type: functional
[15] = biological target: T6, Sentrin-specific protease 7 (Homo sapiens, UniProt Q9BQF6); experiment: SENP7 protease inhibitors, SAR follow-up, biochemical, luminescence, set 2 (AID 588600); type: functional
T6 sequence (Q9BQF6 whole entry): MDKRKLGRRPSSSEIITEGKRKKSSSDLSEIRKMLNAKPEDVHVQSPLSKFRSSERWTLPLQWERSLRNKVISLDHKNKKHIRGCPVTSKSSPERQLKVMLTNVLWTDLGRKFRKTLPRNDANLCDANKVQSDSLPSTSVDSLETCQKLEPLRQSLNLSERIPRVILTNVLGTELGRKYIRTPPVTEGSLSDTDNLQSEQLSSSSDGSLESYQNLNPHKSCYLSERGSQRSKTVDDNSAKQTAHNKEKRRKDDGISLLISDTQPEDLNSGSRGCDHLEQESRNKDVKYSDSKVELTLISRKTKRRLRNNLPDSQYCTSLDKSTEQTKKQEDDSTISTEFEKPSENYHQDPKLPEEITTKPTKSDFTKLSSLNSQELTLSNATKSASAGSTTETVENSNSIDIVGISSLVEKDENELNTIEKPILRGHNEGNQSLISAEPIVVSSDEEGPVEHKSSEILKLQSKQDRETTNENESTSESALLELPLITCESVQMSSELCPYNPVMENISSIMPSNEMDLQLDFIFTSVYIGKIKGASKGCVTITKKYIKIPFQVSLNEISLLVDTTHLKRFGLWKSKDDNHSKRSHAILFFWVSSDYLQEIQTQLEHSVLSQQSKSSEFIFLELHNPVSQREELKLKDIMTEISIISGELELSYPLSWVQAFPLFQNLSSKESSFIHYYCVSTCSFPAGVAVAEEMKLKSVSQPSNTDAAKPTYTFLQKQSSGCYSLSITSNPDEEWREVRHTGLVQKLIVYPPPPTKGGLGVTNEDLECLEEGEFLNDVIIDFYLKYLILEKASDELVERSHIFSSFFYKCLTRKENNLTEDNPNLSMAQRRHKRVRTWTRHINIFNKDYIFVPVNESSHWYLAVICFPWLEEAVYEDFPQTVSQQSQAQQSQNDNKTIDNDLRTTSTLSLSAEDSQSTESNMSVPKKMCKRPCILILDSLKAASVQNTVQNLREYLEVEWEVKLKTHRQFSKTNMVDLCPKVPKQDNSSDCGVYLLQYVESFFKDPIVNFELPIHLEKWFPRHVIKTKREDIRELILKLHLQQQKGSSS

Melanocortin receptor 4 = Melanocortin receptor 4 (Homo sapiens, UniProt P32245); type: functional, cell-based;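 note: Cell-based assay with luminescence read-out, confirmatory dose-response testing for agonist activity of biased ligands at MC4R; human U2OS cells with tagged receptor and beta-arrestin; potency of agonists that increase receptor coupling to beta-arrestin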
Sequence of Melanocortin receptor 4 (P32245 whole entry): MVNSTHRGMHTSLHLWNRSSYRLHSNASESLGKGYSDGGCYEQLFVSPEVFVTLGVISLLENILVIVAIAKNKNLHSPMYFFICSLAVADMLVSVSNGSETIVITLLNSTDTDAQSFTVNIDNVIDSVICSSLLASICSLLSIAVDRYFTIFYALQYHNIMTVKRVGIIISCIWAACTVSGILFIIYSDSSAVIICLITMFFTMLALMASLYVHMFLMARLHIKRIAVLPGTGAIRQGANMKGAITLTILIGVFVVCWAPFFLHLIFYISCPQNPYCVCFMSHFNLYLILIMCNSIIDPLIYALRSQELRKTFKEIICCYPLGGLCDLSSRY

H9c2 = experiment: cells; type: functional, cell-based; conditions: Rattus norvegicus, H9c2, Myocardium;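 note: confirmatory concentration-response retest of ultra-high-throughput screening hits for modulation of myocardial damage; cell death induced by hydrogen peroxide oxidative stress; compound pretreatment for 60 min then peroxide exposure for 2 h; potency is for protecting the cells against peroxide damage rather than for killing them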
[16] = Luminescence Cell-Based Dose Response HTS to Identify Activators of Luciferase Translation or Activity in H4 […] Cells. [Related pubchem assays: 1829 (Project Summary), 1814 (Primary HTS)]; type: functional
H4 = experiment: Luminescence Cell-Based Dose Response HTS to Identify Activators of 5'UTR Stem-Loop Driven Prion Protein mRNA Translation in H4 Neuroglioblastoma Cells. [Related pubchem assays: 1829 (Project Summary), 1814 (Primary HTS)]; type: functional; conditions: Homo sapiens

Question: Which results are given for `CCCCc1ccc(Nc2ncccc2C#N)cc1`?
Answer: IC50 [1]: 33.1 µM (active); IC50 [2]: 17.2 µM (active); IC50 (Caspase-3 [3]): 21.3 µM (active)

Question: With `COc1cc(OC)c2c(-c3cccc(/C=C/c4ccc(F)cc4)c3)cc(=O)oc2c1` as the compound, how does the AC50 (HeLa) read?
Answer: The AC50 was 165 µM (active).

Question: What does the source list for `Cc1nn(-c2ccccc2)c(Cl)c1/C=C/C(=O)c1ccc(O)cc1`?
Answer: EC50 [4]: > 180 µM (inactive); EC50 [5]: > 53 µM (inactive); EC50 [6]: 1.1 µM (active); EC50 [7]: > 150 µM (inactive); EC50 [8]: 18.9 µM (active); IC50 [9]: > 47.1 µM (inactive)

Question: Which IC50 [1] does the source give for `COC(=O)c1sccc1NC(=O)CCC1CCCCC1` here?
Answer: The IC50 was > 100 µM (inactive).

Question: And the IC50 [2]?
Answer: The IC50 was 62.8 µM (active).

Question: What about the IC50 (Caspase-3 [3]) of the same compound?
Answer: The IC50 was 27.9 µM (active).

Question: For `O=S(=O)(Cc1cc(-c2ccccc2Cl)no1)c1ccccc1`, which AC50 (HeLa) is on record?
Answer: The AC50 was 51.8 µM (active).

Question: For `CN(/N=C/c1c[nH]c2ccccc12)c1cnn(-c2ccc(F)c(Cl)c2)c(=O)c1Cl`, which EC50 (cells [10]) is on record?
Answer: Its EC50 is > 350 µM (not active).

Question: What about the IC50 [11] of the same compound?
Answer: The IC50 was > 99 µM (inactive).

Question: What about the EC50 (cells [12]) of the same compound?
Answer: The EC50 was 55.6 µM (active).

Question: And the IC50 [13]?
Answer: The IC50 was > 99 µM (inactive).

Question: What about the IC50 (Caspase-3 [14]) of the same compound?
Answer: Its IC50 is > 99 µM (inactive).

Question: And the IC50 [15]?
Answer: The IC50 was > 99 µM (inactive).

Question: For `COc1cccc(-c2cnc3c(NC=O)cc(-c4ccc(O)c(OC)c4)cn23)c1`, which EC50 (Melanocortin receptor 4) is on record?
Answer: Its EC50 is > 89.2 µM (inactive).

Question: And the IC50 (H9c2)?
Answer: The IC50 was > 79 µM (inactive).

Question: With `Clc1cnc(N/N=C/c2cccs2)c(Cl)c1` as the compound, how does the EC50 [16] read?
Answer: The EC50 was 0.411 µM (active).

Question: What about the EC50 (H4) of the same compound?
Answer: The EC50 was 0.136 µM (active).

Question: What about the AC50 (HeLa) of the same compound?
Answer: Its AC50 is 62.4 µM (active).
